Measured values as given in patent publication US5459160A, “Iridoid derivatives and the use thereof as a drug” (Tsumura & Co., priority 1990, dated 1995).

Experiments:
hyperlipemia = test: Anti-hyperlipemia test in rats on high fat food (Experimental Example 1); type: in vivo, Male Wistar rats; settings: peroral once a day, two weeks, control 100, Table 1
Excerpt: Male Wistar rats 6.5 weeks old were allowed to freely intake a high fat food (containing 1% of cholesterol, 0.5% of sodium cholate, 12% of beef tallow and 20% of standard chow) in the cource of two weeks, to thus cause an outbreak of hyperlipemia. The dose of the drug was started simultaneously with the application of the high fat food, and was perorally given once a day through a stomach tube until the end of the experiment. The drugs were all suspended in a cane sugar fatty acid ester and were administered. The oily compounds were adjusted in advance to 100 mg/m.iota. by diethyl ether. A suitable amount was collected at the time of the dose and after diethyl ether was evaporated and removed, it was suspended in a cane sugar fatty acid ester (1% ryoto sugar ester) and then given. After the final dose of the drug, the rats were fasted for about 18 hours, and the blood was sampled to measure the blood serum lipid. The blood serum lipid was measured by using a TBA-380 biochemical analyzer (a product of Toshiba Medical Co.,) unless a particular hindrance occurred.

bile secretion = test: Cholagogic action, bile secretion (Experimental Example 5); type: in vivo, male Wistar rats; settings: intraduodenal
Protocol: After male Wistar rats 7 weeks old were fasted for 24 hours, they were anesthetized by the interperitoneal administration of 1.25 g/kg (volume 2 m.iota./kg) of urethane. A polyethylene canula (SP-10, a product of Natsume Seisakusho) was inserted into a bile duct and after the bile was caused to flow out for 30 minutes, the bile was collected in the cource of 1 hour. Thereafter, each test drug was suspended or dissolved in a 1% aqueous Tween-80 solution, and was administered into the duodenum at a rate of 5 m.iota./kg. Furthermore, the bile was collected every hour in the course of five hours, and its weight was measured. Only a 1% Tween-80 solution was given as a control.
The results are tabulated in Tables 6, 7, 8, 9 and 10, wherein the bile secretion amount every hour was represented by a percentage with the bile secretion amount (mg) one hour before the dose of the test drug being 100.

Acute toxicity test = settings: mouse, in vivo, ip; male S.P.P. mice, abdominally administered; Table 11
Protocol: The acute toxicity test was carried out by abdominally administering each test drug to male S.P.P. mice and determining an LD50 value.

[1] = 0-1 hour after dose, control 81.1, Table 9
[2] = 1-2 hour after dose, control 66.6, Table 9
[3] = 2-3 hour after dose, control 55.8, Table 9
[4] = 3-4 hour after dose, control 49.0, Table 9
[5] = 4-5 hour after dose, control 42.8, Table 9

Row | Compound | Bile secretion amount, percentage of the hour before dose (bile secretion; [1]) | Bile secretion amount, percentage of the hour before dose (bile secretion; [2]) | Bile secretion amount, percentage of the hour before dose (bile secretion; [3]) | Bile secretion amount, percentage of the hour before dose (bile secretion; [4]) | Bile secretion amount, percentage of the hour before dose (bile secretion; [5]) | LD50 (Acute toxicity test) | further results
1 | COC(=O)C1=CO[C@@H](O[C@@H]2O[C@H](CO)[C@@H](O)[C@H](O)[C@H]2O)[C@@H]2C(C)=CC[C@H]12 [Definite Example 8, methyl (1S, 4aS, 7aS)-1-(β-D-glucopyranosyloxy)-1,4a, 5,7a-tetrahydro-7-methylcyclopenta[c]pyran-4-carboxylate] | 85.0% | 71.7% | 60.1% | 50.6% | 44.4% | – | Blood serum cholesterol (%) (hyperlipemia; 10 mg/kg): 94.4%; Blood serum triglyceride (%) (hyperlipemia; 10 mg/kg): 82.5%; Blood serum cholesterol (%) (hyperlipemia; 30 mg/kg): 54.8%; Blood serum triglyceride (%) (hyperlipemia; 30 mg/kg): 68.7%
2 | COC(=O)C1=COC(=O)[C@@H]2C(CO[Si](C)(C)C(C)(C)C)=CC[C@H]12 [Definite Example 19] | – | – | – | – | – | 355 mg/kg | –
3 | COC(=O)C1=CO[C@@H](OC2CCCCO2)[C@@H]2C(CO)=CC[C@H]12 (single isomer, unassigned) [Definite Example 16] | – | – | – | – | – | 412 mg/kg | –
4 | COC(=O)C1=COC(O)[C@H]2[C@@H]1CC1OC12C (stereo partly drawn) [Definite Example 35, methyl (4aS, 7aS)-6,7-epoxy-1,4a,5,6,7,7a-hexahydro-1-hydroxy-7-methylcyclopenta[c]pyran-4-carboxylate] | – | – | – | – | – | – | Bile secretion amount, percentage of the hour before dose (bile secretion; 0-1 hour after dose, control 87.7, Table 7): 110.4%; Bile secretion amount, percentage of the hour before dose (bile secretion; 1-2 hour after dose, control 75.3, Table 7): 85.2%; Bile secretion amount, percentage of the hour before dose (bile secretion; 2-3 hour after dose, control 65.0, Table 7): 71.4%; Bile secretion amount, percentage of the hour before dose (bile secretion; 3-4 hour after dose, control 58.7, Table 7): 61.1%; Bile secretion amount, percentage of the hour before dose (bile secretion; 4-5 hour after dose, control 51.8, Table 7): 53.5%
5 | COC(=O)C1=COC2OCC3CCC1C32 [Definite Example 12, methyl (iS, 4aS, 7R, 7aS)-1,7-(epoxymethano)-1,4a, 5,6,7,7a-hexahydrocyclopenta[c]pyran-4-carboxylate] | – | – | – | – | – | 527 mg/kg | –
6 | OCC1=CC[C@@H]2C(CO)=CO[C@@H](OC3CCCCO3)[C@H]12 (stereo partly drawn) [Definite Example 17, (1S, 4aS, 7aS)-4,7-bis (hydroxymethyl)-1,4a, 5,7a-tetrahydro-1-(2-tetrahydropyranyloxy)cyclopenta[c]pyran] | – | – | – | – | – | – | Bile secretion amount, percentage of the hour before dose (bile secretion; 0-1 hour after dose, control 82.9, Table 10): 115.7%; Bile secretion amount, percentage of the hour before dose (bile secretion; 1-2 hour after dose, control 74.1, Table 10): 77.3%; Bile secretion amount, percentage of the hour before dose (bile secretion; 2-3 hour after dose, control 66.1, Table 10): 62.9%; Bile secretion amount, percentage of the hour before dose (bile secretion; 3-4 hour after dose, control 59.8, Table 10): 54.0%; Bile secretion amount, percentage of the hour before dose (bile secretion; 4-5 hour after dose, control 53.3, Table 10): 47.2%
7 | COC(=O)C1=CO[C@@H](O[C@@H]2O[C@H](COC(C)=O)[C@@H](OC(C)=O)[C@H](OC(C)=O)[C@H]2OC(C)=O)[C@@H]2C(C)=CC[C@H]12 [Definite Example 7, methyl (1S, 4aS, 7aS)-1-(2,3,4,6-tetra-O-acetyl-β-D-glucopyranosyloxy)-1,4a, 5,7a-tetrahydro-7-methylcyclopenta[c]pyran-4-carboxylate] | – | – | – | – | – | 382 mg/kg | Blood serum cholesterol (%) (hyperlipemia; 10 mg/kg): 94.4%; Blood serum triglyceride (%) (hyperlipemia; 10 mg/kg): 96.9%; Blood serum cholesterol (%) (hyperlipemia; 30 mg/kg): 105%; Blood serum triglyceride (%) (hyperlipemia; 30 mg/kg): 64.6%
8 | COC(=O)C1=COC(=O)[C@H]2[C@@H]1CC[C@@H]2C [Definite Example 5, methyl (4aS, 7S, 7aR)-1,4a, 5,6,7,7a-hexahydro-7-methyl-1-oxocyclopenta[c]pyran-4-carboxylate] | 105.0% | 78.0% | 62.0% | 52.6% | 45.1% | – | –
9 | OCC1=CC[C@@H]2C(CO)=CO[C@@H](OC3CCCCO3)[C@H]12 (stereo partly drawn) [Definite Example 18, (1S, 4aS, 7aS)-4,7-bis(hydroxymethyl)-1,4a, 5,7a-tetrahydro-1-(2-tetrahydropyranyloxy)cyclopenta[c]pyran] | 91.3% | 74.6% | 60.3% | 51.1% | 44.1% | 559 mg/kg | –
10 | COC(=O)C1=COC(O)[C@@H]2[C@@H](CO)CC[C@H]12 (stereo partly drawn) [Definite Example 6, methyl (4aS, 7S, 7aS)-1,4a, 5,6,7,7a-hexahydro-1-hydroxy-7-(hydroxymethyl)cyclopenta[c]pyran-4-carboxylate] | – | – | – | – | – | 406 mg/kg | Blood serum cholesterol (%) (hyperlipemia; 10 mg/kg): 79.6%; Blood serum triglyceride (%) (hyperlipemia; 10 mg/kg): 86.7%; Blood serum cholesterol (%) (hyperlipemia; 30 mg/kg): 85.4%; Blood serum triglyceride (%) (hyperlipemia; 30 mg/kg): 80.4%; Bile secretion amount, percentage of the hour before dose (bile secretion; 0-1 hour after dose, control 84.1, Table 8): 111.4%; Bile secretion amount, percentage of the hour before dose (bile secretion; 1-2 hour after dose, control 72.5, Table 8): 78.0%; Bile secretion amount, percentage of the hour before dose (bile secretion; 2-3 hour after dose, control 63.8, Table 8): 66.7%; Bile secretion amount, percentage of the hour before dose (bile secretion; 3-4 hour after dose, control 56.7, Table 8): 55.2%; Bile secretion amount, percentage of the hour before dose (bile secretion; 4-5 hour after dose, control 51.2, Table 8): 50.3%
11 | COC(=O)C1=COC(=O)[C@@H]2C(CO)=CC[C@H]12 [Definite Example 20, methyl (4aS, 7aS)-1,4a, 5,7a-tetrahydro-7-(hydroxymethyl)-1-oxocyclopenta[c]pyran-4-carboxylate] | 82.6% | 66.8% | 55.1% | 48.6% | 42.8% | – | –
12 | COC(=O)C1=COC(=O)[C@@H]2C(CO[Si](c3ccccc3)(c3ccccc3)C(C)(C)C)=CC[C@H]12 [Definite Example 28, methyl (4aS, 7aS)-7-[(tert-butyldiphenylsilyloxy)methyl]-1,4a, 5,7a-tetrahydro-1-oxocyclopenta[c]pyran-4-carboxylate] | – | – | – | – | – | 406 mg/kg | –
13 | CC(C)(C)[Si](C)(C)OCC1=CC[C@@H]2C(CO)=CO[C@@H](O[Si](C)(C)C(C)(C)C)[C@H]12 [Definite Example 34, (1S, 4aS, 7aS)-1-(tert-butyldimethylsilyloxy)-7-[(tert-butyldimethylsilyloxy)methyl]-1,4a, 5,7a-tetrahydro-4-(hydroxymethyl)cyclopenta[c]pyran] | – | – | – | – | – | 511 mg/kg | –
